pIC50: −log10 of the molar value.
biological target: T1, Dihydrofolate reductase (Homo sapiens, UniProt P00374); assay: Dihydrofolate Reductase (DHFR) Assay; settings: pH 7.4; 30 °C
T1 sequence (P00374 whole entry): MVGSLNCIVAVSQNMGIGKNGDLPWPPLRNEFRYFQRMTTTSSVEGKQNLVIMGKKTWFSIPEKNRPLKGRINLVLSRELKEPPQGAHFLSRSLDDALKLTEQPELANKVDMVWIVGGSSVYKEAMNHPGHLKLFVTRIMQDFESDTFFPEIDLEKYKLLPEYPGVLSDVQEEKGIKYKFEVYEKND
Experimental: DHFRs were assayed spectrophotometrically in the reaction buffer solution containing dihydrofolate. The reaction was initiated with an amount of enzyme yielding a change in optical density at 340 nm of 0.015/min.

pIC50 | Structure (SMILES)
< 4.51 | CCc1[nH]c2nc(N)[nH]c(=O)c2c1Sc1c(C)cccc1C [2-amino-5-[(2,6-dimethylphenyl)sulfanyl]-6-ethyl-3H,4H,7H-pyrrolo[2,3-d]pyrimidin-4-one]
< 4.57 | CCc1[nH]c2nc(N)[nH]c(=O)c2c1Sc1ccc(Cl)c(Cl)c1 [2-amino-5-[(3,4-dichlorophenyl)sulfanyl]-6-ethyl-3H,4H,7H-pyrrolo[2,3-d]pyrimidin-4-one]
< 4.57 | CCc1[nH]c2nc(N)nc(O)c2c1Sc1cccc(Br)c1 [2-amino-5-[(3-bromophenyl)sulfanyl]-6-ethyl-3H,4H,7H-pyrrolo[2,3-d]pyrimidin-4-one]
< 4.51 | CCc1[nH]c2nc(N)nc(O)c2c1Sc1cccc(Cl)c1 [2-amino-5-[(3-chlorophenyl)sulfanyl]-6-ethyl-3H,4H,7H-pyrrolo[2,3-d]pyrimidin-4-one]
< 4.59 | CCc1[nH]c2nc(N)nc(O)c2c1Sc1ccc(Br)cc1 [2-amino-5-[(4-bromophenyl)sulfanyl]-6-ethyl-3H,4H,7H-pyrrolo[2,3-d]pyrimidin-4-one]
< 4.62 | CCc1[nH]c2nc(N)[nH]c(=O)c2c1Sc1cc(C(F)(F)F)cc(C(F)(F)F)c1 [2-amino-5-{[3,5-bis(trifluoromethyl)phenyl]sulfanyl}-6-ethyl-3H,4H,7H-pyrrolo[2,3-d]pyrimidin-4-one]
< 4.49 | CCc1[nH]c2nc(N)nc(O)c2c1Sc1ccc(F)cc1 [2-amino-6-ethyl-5-[(4-fluorophenyl)sulfanyl]-3H,4H,7H-pyrrolo[2,3-d]pyrimidin-4-one]
< 4.54 | CCc1[nH]c2nc(N)nc(O)c2c1Sc1ccc([N+](=O)[O-])cc1 [2-amino-6-ethyl-5-[(4-nitrophenyl)sulfanyl]-3H,4H,7H-pyrrolo[2,3-d]pyrimidin-4-one]
